Data as given in ChEMBL document CHEMBL6182882, “Evodiamine-Based Nitroreductase Responsive Theranostic Agents for Treatment of Colon Cancer” (J Med Chem, 2025).
Blank lines part the entries; values can stand above or below the compound they belong to. Activity calls are given as the source filed them. No cut-off for these calls is given here.

Assays:
[1] = (§1) Prodrug activation in phosphate buffer saline at pH 7.4 assessed as Escherichia coli nitroreductase mediated 3-fluoro-10-hydroxy-14-methyl-8,13,13b,14-tetrahydroindolo[2',3':3,4]pyrido[2,1-b]quinazolin-5(7H)-one formation by measuring fluorescence emission intensity at 25 uM incubated for 2 hrs in presence of NADH by fluorescence spectrophotometric analysis; conditions: isolated protein, pH 7.4, 2 h
[2] = as §1, with “measuring fold increase in” for “measuring”; conditions: isolated protein, pH 7.4, 2 h
[3] = as §1, with “10” for “25”, “of 1 to 7 microg/ml NTR and” for “of”; conditions: isolated protein, pH 7.4, 2 h
[4] = as §1, with “incubated for 0.5 to 2 hrs” for “incubated for 2 hrs”, “presence of 1 to 7 microg/ml NTR and NADH by” for “presence of NADH by”; conditions: isolated protein, pH 7.4, 25 µM, time 0.5-2 hrs
HCT-116 [5] = assay: Cytotoxicity against human HCT-116 cells assessed as inhibition of cell growth incubated for 72 hrs under hypoxic conditions by CCK-8 assay; assay type: functional, cell-based; conditions: HCT-116, 72 h
A549 [6] = assay: Cytotoxicity against human A549 cells assessed as inhibition of cell growth incubated for 72 hrs under hypoxic conditions by CCK-8 assay; assay type: functional, cell-based; conditions: A549, 72 h
HCT-116 [7] = assay: Cytotoxicity against human HCT-116 cells assessed as inhibition of cell growth incubated for 72 hrs under normoxic conditions by CCK-8 assay; assay type: functional, cell-based; conditions: HCT-116, 72 h
A549 [8] = assay: Cytotoxicity against human A549 cells assessed as inhibition of cell growth incubated for 72 hrs under normoxic conditions by CCK-8 assay; assay type: functional, cell-based; conditions: A549, 72 h
[9] = Cytotoxicity against human HUVEC cells assessed as inhibition of cell growth incubated for 72 hrs under normoxic condition by CCK-8 assay; assay type: toxicity, cell-based
HCT-116 [10] = assay: Induction of cell cycle arrest in human HCT-116 cells assessed as accumulation of cells at G1 phase at 0.04 uM measured after 24 hrs by flow cytometric analysis (reference value: 48.40 %); assay type: functional
HCT-116 [11] = assay: Induction of cell cycle arrest in human HCT-116 cells assessed as accumulation of cells at S phase at 0.04 uM measured after 24 hrs by flow cytometric analysis (reference value: 33.15 %); assay type: functional
HCT-116 [12] = assay: Induction of cell cycle arrest in human HCT-116 cells assessed as accumulation of cells at G1 phase at 0.2 uM measured after 24 hrs by flow cytometric analysis (reference value: 48.40 %); assay type: functional
A549 [13] = assay: Induction of cell cycle arrest in human A549 cells assessed as accumulation of cells at G2/M phase at 1.0 uM measured after 24 hrs by flow cytometric analysis (reference value: 3.81%); assay type: functional
HCT-116 [14] = assay: Induction of cell cycle arrest in human HCT-116 cells assessed as accumulation of cells at G1 phase at 1.0 uM measured after 24 hrs by flow cytometric analysis (reference value: 48.40 %); assay type: functional
A549 [15] = assay: Induction of cell cycle arrest in human A549 cells assessed as accumulation of cells at G2/M phase at 0.2 uM measured after 24 hrs by flow cytometric analysis (reference value: 3.81%); assay type: functional
A549 [16] = assay: Induction of cell cycle arrest in human A549 cells assessed as accumulation of cells at G2/M phase at 0.04 uM measured after 24 hrs by flow cytometric analysis relative to control; assay type: functional
HCT-116 [17] = assay: Induction of cell cycle arrest in human HCT-116 cells assessed as accumulation of cells at S phase at 1.0 uM measured after 24 hrs by flow cytometric analysis (reference value: 33.15 %); assay type: functional
HCT-116 [18] = assay: Induction of cell cycle arrest in human HCT-116 cells assessed as accumulation of cells at S phase at 0.2 uM measured after 24 hrs by flow cytometric analysis (reference value: 33.15 %); assay type: functional
HCT-116 [19] = assay: Induction of cell cycle arrest in human HCT-116 cells assessed as accumulation of cells at G2/M phase at 0.04 uM measured after 24 hrs by flow cytometric analysis (reference value: 18.45 %); assay type: functional
HCT-116 [20] = assay: Induction of cell cycle arrest in human HCT-116 cells assessed as accumulation of cells at G2/M phase at 0.2 uM measured after 24 hrs by flow cytometric analysis (reference value: 18.45 %); assay type: functional
HCT-116 [21] = assay: Induction of cell cycle arrest in human HCT-116 cells assessed as accumulation of cells at G2/M phase at 1.0 uM measured after 24 hrs by flow cytometric analysis (reference value: 18.45 %); assay type: functional
HCT-116 [22] = assay: Induction of apoptosis in human HCT-116 cells assessed as apoptotic cells at 0.04 to 1.0 uM measured after 48 hrs by flow cytometric analysis (reference value: 4.57%); assay type: functional; conditions: dose 0.04-1 µM
A549 [23] = assay: Induction of apoptosis in human A549 cells assessed as apoptotic cells at 0.04 to 1.0 uM measured after 48 hrs by flow cytometric analysis (reference value: 6.44%); assay type: functional; conditions: dose 0.04-1 µM
[24] = target: T1, DNA topoisomerase 1 (Homo sapiens) (UniProt P11387); assay: Inhibition of topoisomerase 1 (unknown origin) […] activity using pBR322 DNA as substrate at 125 to 250 uM incubated for 15 mins by ethidium bromide staining based agarose gel electrophoresis; conditions: dose 125-250 µM
T1 sequence (whole entry): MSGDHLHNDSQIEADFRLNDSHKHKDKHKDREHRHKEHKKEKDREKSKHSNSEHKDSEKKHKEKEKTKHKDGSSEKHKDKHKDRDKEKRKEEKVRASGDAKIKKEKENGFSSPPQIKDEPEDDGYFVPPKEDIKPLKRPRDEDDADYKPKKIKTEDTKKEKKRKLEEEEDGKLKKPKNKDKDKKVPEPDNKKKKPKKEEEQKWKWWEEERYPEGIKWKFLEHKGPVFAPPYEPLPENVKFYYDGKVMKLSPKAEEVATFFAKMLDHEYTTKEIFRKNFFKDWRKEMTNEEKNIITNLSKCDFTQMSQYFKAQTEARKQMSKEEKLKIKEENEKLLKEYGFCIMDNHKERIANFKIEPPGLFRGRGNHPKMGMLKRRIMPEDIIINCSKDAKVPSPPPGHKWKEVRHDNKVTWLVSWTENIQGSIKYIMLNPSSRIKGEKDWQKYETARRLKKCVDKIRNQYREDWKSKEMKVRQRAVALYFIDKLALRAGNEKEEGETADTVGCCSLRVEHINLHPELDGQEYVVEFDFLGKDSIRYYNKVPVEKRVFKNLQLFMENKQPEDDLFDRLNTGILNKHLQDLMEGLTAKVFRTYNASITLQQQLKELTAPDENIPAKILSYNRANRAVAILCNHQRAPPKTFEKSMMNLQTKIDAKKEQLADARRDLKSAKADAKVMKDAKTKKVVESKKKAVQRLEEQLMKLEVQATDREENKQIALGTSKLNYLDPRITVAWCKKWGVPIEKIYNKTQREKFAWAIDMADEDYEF

[25] = Metabolic stability in ICR mouse liver microsomes assessed as terminal half life; assay type: ADME, Microsome; conditions: read-out: beta t1/2
[26] = Metabolic stability in ICR mouse liver microsomes assessed as intrinsic clearance; assay type: ADME, Microsome; conditions: read-out: CLH
HCT-116 [27] = assay: Antitumor activity against human HCT-116 cells xenografted in male nude mouse assessed as tumor growth inhibition at 10 mg/kg, ip administered twice daily for 14 consecutive days; assay type: functional; conditions: read-out: TGI
[28] = Toxicity in male nude mouse assessed as change in body weight at 10 mg/kg, ip administered twice daily for 14 consecutive days; assay type: organism-based; conditions: in vivo
[29] = Drug uptake in male nude mouse kidney xenografted in human HCT-116 cells at 10 mg/kg, […] administered via tail vein and measured at 12 hrs post injection by fluorescence imaging analysis; assay type: ADME, organism-based; conditions: in vivo
[30] = Drug uptake in male nude mouse tumor xenografted in human HCT-116 cells at 10 mg/kg, […] administered via tail vein and measured at 12 hrs post injection by fluorescence imaging analysis; assay type: ADME, organism-based, Neoplasm; conditions: in vivo
Bacteroides fragilis = assay: Antibacterial activity against Bacteroides fragilis; assay type: functional
HCT-116 [31] = assay: Binding affinity to NTR in human HCT-116 cells assessed as increase in fluorescence intensity at 25 uM incubated for 2 hrs under 2 to 10 % hypoxic condition by confocal fluorescence imaging based analysis; assay type: cell-based
A549 [32] = assay: Binding affinity to NTR in human A549 cells assessed as increase in fluorescence intensity at 25 uM incubated for 2 hrs under 2 to 10 % hypoxic condition by confocal fluorescence imaging based analysis; assay type: cell-based
HUVEC = assay: Binding affinity to NTR in human HUVEC cells assessed as fluorescence intensity at 10 to 100 uM incubated for 2 hrs by confocal fluorescence microscopic analysis; assay type: cell-based; conditions: dose 10-100 µM
HCT-116 [33] = assay: Binding affinity to NTR in human HCT-116 cells assessed as increase in fluorescence intensity at 10 to 100 uM incubated for 2 hrs by confocal fluorescence microscopic analysis; assay type: cell-based; conditions: dose 10-100 µM
A549 [34] = assay: Binding affinity to NTR in human A549 cells assessed as increase in fluorescence intensity at 10 to 100 uM incubated for 2 hrs by confocal fluorescence microscopic analysis; assay type: cell-based; conditions: dose 10-100 µM
[35] = Drug localization in lysosome of human HCT-116 cells at 25 uM incubated for 2 hrs by Lyso-tracker red dye based confocal imaging analysis; assay type: ADME, subcellular; conditions: hct-116, 2 h
[36] = Drug localization in lysosome of human A549 cells at 25 uM incubated for 2 hrs by Lyso-tracker red dye based confocal imaging analysis; assay type: ADME, subcellular; conditions: a549, 2 h
[37] = Drug localization in Mitochondria of human HCT-116 cells at 25 uM incubated for 2 hrs by Mito-tracker green dye based confocal imaging analysis; assay type: ADME; conditions: hct-116, 2 h
[38] = Drug localization in endoplasmic reticulum of human HCT-116 cells at 25 uM incubated for 2 hrs by ER-tracker red dye based confocal imaging analysis; assay type: ADME, subcellular; conditions: hct-116, 2 h
[39] = Drug localization in Cell membrane of human HCT-116 cells at 25 uM incubated for 2 hrs by Dio- tracker green dye based confocal imaging analysis; assay type: ADME, cell membranes; conditions: hct-116, 2 h
[40] = Drug localization in nucleus of human HCT-116 cells at 25 uM incubated for 2 hrs by […] dye based confocal imaging analysis; assay type: ADME, subcellular; conditions: hct-116, 2 h
HCT-116 [41] = assay: Antitumor activity against human HCT-116 cells xenografted in male nude mouse assessed as tumor growth inhibition at 0.5 mg/kg, ip administered twice daily for 14 consecutive days; assay type: functional; conditions: read-out: TGI
[42] = Toxicity in male nude mouse assessed as change in body weight at 0.5 mg/kg, ip administered twice daily for 14 consecutive days; assay type: organism-based; conditions: in vivo
Fusobacterium nucleatum = assay: Antibacterial activity against Fusobacterium nucleatum; assay type: functional

Drug metabolism [1]: metabolite_detected
fold change (FC) [2]: 14
Drug metabolism [3]: metabolite_detected
Drug metabolism [4]: metabolite_detected
inhibition [24]: Weak_effect
half-life [25]: 9.53 h
CLint scaled [26]: 9.54 mL/min/kg
Drug uptake [29]: Active
Drug uptake [30]: Active
MIC50 (Bacteroides fragilis): > 64 µg/mL
Drug uptake [35]: Active
Drug uptake [36]: Active
Drug uptake [37]: Active
Drug uptake [38]: Active
Drug uptake [39]: Active
Drug uptake [40]: Active
SMILES: CN1c2ccc(F)cc2C(=O)N2CCc3c([nH]c4ccc(OC(=O)/C=C/C(=O)OCc5cc6ccc(OCc7ccc([N+](=O)[O-])cc7)cc6oc5=O)cc34)C21 (stereo not drawn)
IC50 (HCT-116 [5]): 71 nM
IC50 (A549 [6]): 38 nM
IC50 (HCT-116 [7]): 145 nM
IC50 (A549 [8]): 255 nM
IC50 at 72 h [9]: 120 nM
Activity (HCT-116 [10]): 43.77%
Activity (HCT-116 [11]): 32.22%
Activity (HCT-116 [12]): 7.74%
Activity (A549 [13]): 59.51%
Activity (HCT-116 [14]): 0.56%
Activity (A549 [15]): 47.03%
Activity (A549 [16]): 10.87%
Activity (HCT-116 [17]): 2.78%
Activity (HCT-116 [18]): 17.36%
Activity (HCT-116 [19]): 24.01%
Activity (HCT-116 [20]): 74.9%
Activity (HCT-116 [21]): 96.66%
Activity (HCT-116 [22]): 13.04%
Activity (A549 [23]): 18.27%
inhibition in vivo at 10 mg/kg (HCT-116 [27]): 76.1%
Activity [28]: Non-toxic
Activity (HCT-116 [31]): Active
Activity (A549 [32]): Active
Activity (HUVEC): Active; Weak Fluorescence Observed
Activity (HCT-116 [33]): Active; Stronger Fluorescence Intensity Observed
Activity (A549 [34]): Active

Drug metabolism [1]: metabolite_notdetected
SMILES: CN1c2ccc(F)cc2C(=O)N2CCc3c([nH]c4ccc(OC(=O)/C=C/C(=O)OCc5cc6ccc(OCc7ccccc7)cc6oc5=O)cc34)C21 (stereo not drawn)

The remaining lines, values behind:

SMILES: CN1c2ccc(F)cc2C(=O)N2CCc3c([nH]c4ccc(OC(=O)CCC(=O)OCc5cc6ccc(OCc7ccc([N+](=O)[O-])cc7)cc6oc5=O)cc34)C21 (stereo not drawn)
Drug metabolism [1]: metabolite_detected

SMILES: CN1c2ccc(F)cc2C(=O)N2CCc3c([nH]c4ccc(OC(=O)OCc5cc6ccc(OCc7ccc([N+](=O)[O-])cc7)cc6oc5=O)cc34)C21 (stereo not drawn)
Drug metabolism [1]: metabolite_detected

SMILES: CC[C@@]1(O)C(=O)OCc2c1cc1n(c2=O)Cc2cc3c(CN(C)C)c(O)ccc3nc2-1 [TOPOTECAN]
inhibition in vivo at 0.5 mg/kg (HCT-116 [41]): 82.5%
Activity [42]: Toxic

SMILES: CN1c2ccc(F)cc2C(=O)N2CCc3c([nH]c4ccc(O)cc34)C21 (stereo not drawn)
IC50 (HCT-116 [5]): 15 nM
IC50 (A549 [6]): 15 nM
IC50 at 72 h [9]: 44 nM
half-life [25]: 0.164 h
CLint scaled [26]: 555 mL/min/kg
MIC50 (Fusobacterium nucleatum): > 64 µg/mL
